According to patent US5591758A, “Organic nitrates, processes for their preparation and their use in the treatment of cardiovascular diseases” (Laboratoires Hoechst, SA, priority 1991, dated 1997):
Values joined by “and” are separate entries in the source; they are usually repeats but may differ in a detail not shown here. Identical values can stand only once.

Tested on: anaesthetised dogs
Assay: Tachyphylaxis model on anaesthetised dogs (repeated i.d. administration)
Format: in vivo, dogs (labrador/harrier cross)
Parameters: Δdp/dt average / ΔBPs / ΔBPd / ΔLVEDP / ΔHR / ΔBPs average / ΔBPd average / ΔLVEDP average / ΔHR average: unit not given here
Conditions: for ΔBPd / ΔBPs / ΔHR / ΔLVEDP / Δdp/dt: single dog
Protocol: Comparison with isosorbide mononitrate (IS-5-MN).
The product (46) is tested in a tachyphylaxis model on anaesthetised dogs. IS-5-MN is used as reference substance.
8 dogs of each sex, weighing between 16 and 24 kg, are used. These dogs are the progeny of a labrador/harrier cross. Anaesthesia is induced with the aid of sodium pentobarbital (45 mg/kg i.v.) and maintained by i.v. perfusion (flow rate: 8 mg/kg/h). The animals are ventilated, with the aid of a "Bird Mark 7" respirator, using ambient air, and catheterised. […] The arterial blood gases are measured at regular intervals.
IS-5-MN is also dissolved in water and given i.d. in a dosage of 5 mg/kg in a volume of 10 ml/animal.
Three hours (in the case of IS-5-MN) or four hours (in the case of (46)) after the first administration, the compounds are readministered in the same dosage and by the same route. The haemodynamic parameter chosen for the study of the tachyphylaxis is the systolic blood pressure (BPs), insofar as this parameter is very sensitive to the administration of the compounds.

[1] = 1st administration, 5 mg/kg i.d., 5 min
[2] = 1st administration, 5 mg/kg i.d., 10 min
[3] = 1st administration, 5 mg/kg i.d., 15 min
[4] = 1st administration, 5 mg/kg i.d., 30 min
[5] = 1st administration, 5 mg/kg i.d., 60 min
[6] = 1st administration, 5 mg/kg i.d., 120 min
[7] = 1st administration, 5 mg/kg i.d., 180 min
[8] = i.d., IS-5-MN 5 mg/kg, (46) 0.75 mg/kg
[9] = n = 4, 2nd administration, 5 mg/kg i.d., 5 min
[10] = n = 4, 2nd administration, 5 mg/kg i.d., 10 min
[11] = n = 4, 2nd administration, 5 mg/kg i.d., 15 min
[12] = n = 4, 2nd administration, 5 mg/kg i.d., 30 min
[13] = n = 4, 2nd administration, 5 mg/kg i.d., 60 min
[14] = n = 4, 2nd administration, 5 mg/kg i.d., 120 min
[15] = n = 4, 2nd administration, 5 mg/kg i.d., 180 min
[16] = 1st administration, 5 mg/kg i.d., 5 min, 5 mg/kg
[17] = 1st administration, 5 mg/kg i.d., 10 min, 5 mg/kg
[18] = 1st administration, 5 mg/kg i.d., 15 min, 5 mg/kg
[19] = 1st administration, 5 mg/kg i.d., 30 min, 5 mg/kg
[20] = 1st administration, 5 mg/kg i.d., 60 min, 5 mg/kg
[21] = 1st administration, 5 mg/kg i.d., 120 min, 5 mg/kg
[22] = 1st administration, 5 mg/kg i.d., 180 min, 5 mg/kg
[23] = 2nd administration, 5 mg/kg i.d., 5 min, 5 mg/kg
[24] = 2nd administration, 5 mg/kg i.d., 10 min, 5 mg/kg
[25] = 2nd administration, 5 mg/kg i.d., 15 min, 5 mg/kg
[26] = 2nd administration, 5 mg/kg i.d., 30 min, 5 mg/kg
[27] = 2nd administration, 5 mg/kg i.d., 60 min, 5 mg/kg
[28] = 2nd administration, 5 mg/kg i.d., 120 min, 5 mg/kg
[29] = 2nd administration, 5 mg/kg i.d., 180 min, 5 mg/kg

## O=[N+]([O-])O[C@@H]1CO[C@H]2[C@@H]1OC[C@@H]2O [IS-5-MN, isosorbide 5-mononitrate, reference compound]
5 mg/kg i.d.
  fall in the BPs, first administration, on average: -30 mmHg
  return of BP to control value after second administration: rapid return to the control value
[1]
  ΔBPd average: -21
  ΔBPs average: -30
  ΔLVEDP average: -3
  Δdp/dt average: -175
[2]
  ΔBPd average: -18
  ΔBPs average: -26
  ΔLVEDP average: -3
  Δdp/dt average: -175
[3]
  ΔBPd average: -16
  ΔBPs average: -25
  ΔLVEDP average: -3
  Δdp/dt average: -150
[4]
  ΔBPd average: -13
  ΔBPs average: -24
  ΔLVEDP average: -3
  Δdp/dt average: -175
[5]
  ΔBPd average: -12
  ΔBPs average: -23
  ΔLVEDP average: -1
  Δdp/dt average: -200
[6]
  ΔBPd average: 3
  ΔBPs average: -5
  ΔLVEDP average: -2
  Δdp/dt average: 75
[7]
  ΔBPd average: 3
  ΔBPs average: -4
  ΔLVEDP average: -2
  Δdp/dt average: 100
  Δdp/dt: 100
dogs, two i.d. administrations
  development of tachyphylaxis after repeated administration: tachyphylaxis after repeated administration
[8]
  maximum fall in the BP after second administration: -19 mmHg
  time of maximum effect on BPs after first administration: 5 min
  time of maximum fall in the BP after second administration: 5 min
[9]
  ΔBPd average: -13
  ΔBPs average: -19
  ΔLVEDP average: -1
  Δdp/dt average: -125
[10]
  ΔBPd average: -11
  ΔBPs average: -15
  ΔLVEDP average: -2
  Δdp/dt average: -75
[11]
  ΔBPd average: -9
  ΔBPs average: -13
  ΔLVEDP average: -1
  Δdp/dt average: -100
[12]
  ΔBPd average: -5
  ΔBPs average: -9
  ΔLVEDP average: -1
  Δdp/dt average: 0
[13]
  ΔBPd average: -4
  ΔBPs average: -7
  ΔLVEDP average: -2
  Δdp/dt average: 50
[14]
  ΔBPd average: -5
  ΔBPs average: -6
  ΔLVEDP average: -1
  Δdp/dt average: 100
[15]
  ΔBPd average: -1
  ΔBPs average: -4
  ΔLVEDP average: -2
  Δdp/dt average: 175
[16]
  ΔBPd: -15 and -25 and -20
  ΔBPs: -25 and -35 and -30
  ΔHR: 0 and 5
  ΔLVEDP: -3 and -4 and -2
  Δdp/dt: -200 and -100 and -300
[17]
  ΔBPd: -15 and -20
  ΔBPs: -25 and -30
  ΔHR: 0 and 5
  ΔLVEDP: -3 and -5 and -1
  Δdp/dt: -300 and 0 and -100
[18]
  ΔBPd: -15 and -10 and -20
  ΔBPs: -25 and -20 and -30
  ΔHR: -5 and 5 and 0
  ΔLVEDP: -3 and -5 and -1
  Δdp/dt: -200 and 0 and -100 and -300
[19]
  ΔBPd: -15 and -10
  ΔBPs: -35 and -20 and -25 and -15
  ΔHR: -15 and 5 and 0
  ΔLVEDP: -1 and -5 and -3
  Δdp/dt: -300 and 0 and -100
[20]
  ΔBPd: -20 and 0 and -15
  ΔBPs: -35 and -10 and -25 and -20
  ΔHR: -20 and 10 and -5 and 0
  ΔLVEDP: 0 and -2 and -3 and -1
  Δdp/dt: -400 and 0 and -100 and -300
[21]
  ΔBPd: 10 and 0 and -5 and 5
  ΔBPs: 0 and -15 and -5
  ΔHR: 0 and 10 and 5
  ΔLVEDP: -1 and -3 and -2
  Δdp/dt: 400 and 0 and -100
[22]
  ΔBPd: 5 and 0 and -5 and 10
  ΔBPs: -5 and 0 and -15 and 5
  ΔHR: -5 and 10 and 5
  ΔLVEDP: -3 and -1 and -5 and 0
[23]
  ΔBPd: -5 and -15
  ΔBPs: -15 and -20
  ΔHR: 0 and 5
  ΔLVEDP: -2 and 0
  Δdp/dt: -200 and -100
2nd administration, 5 mg/kg i.d., 10 min
  ΔBPs: -15
[24]
  ΔBPd: -5 and -15
  ΔHR: 0 and 5
  ΔLVEDP: -2 and -1
  Δdp/dt: -200 and 0 and -100
2nd administration, 5 mg/kg i.d., 15 min
  Δdp/dt: -100
[25]
  ΔBPd: -5 and -15 and -10
  ΔBPs: -15 and -10
  ΔHR: -5 and 0 and 5
  ΔLVEDP: -2 and -1 and 0
2nd administration, 5 mg/kg i.d., 30 min
  Δdp/dt: 0
[26]
  ΔBPd: 0 and -10 and -5
  ΔBPs: -10 and -5
  ΔHR: 0 and 5
  ΔLVEDP: -2 and -1 and 0
[27]
  ΔBPd: 5 and -10 and 0
  ΔBPs: 0 and -10 and -15 and -5
  ΔHR: 5 and 0 and -5
  ΔLVEDP: -2 and -3 and -1
  Δdp/dt: 100 and 0 and -100 and 200
[28]
  ΔBPd: 0 and -15 and -5
  ΔBPs: -5 and -15 and 0
  ΔHR: 5 and -5 and 10
  ΔLVEDP: -2 and 1
  Δdp/dt: 0 and 100 and 300
[29]
  ΔBPd: 0 and -5
  ΔBPs: -5 and 0
  ΔHR: 5 and 15 and 0
  ΔLVEDP: -2 and -3 and -1
  Δdp/dt: 100 and 200 and 300
